# Measured values taken from patent US20260232661A1, “Compositions and Uses Thereof” (Purposeful IKE, priority 2020, published 2026).
# Where “and” joins values, the source holds several entries; their conditions need not be identical. Equal values may be shown once.
# Experiments:
# Format in all cases: in vivo
# Fmr1 KO mice [1] = experiment: Hyponeophagia test (anxiety)
# Description: (§1) Fmr1 KO mice backcrossed to the FVB strain and WT littermates were used during experiments. TransnetXY Automated Genotyping (www.transnetyx.com/). TRANSNETYX, INC., 8110 Cordova Rd. Suite 119, Cordova, TN 38016, USA was used for genotyping. The animals were pretreated for 14 days. The active ingredients of Sumatriptan and Ergoloid were in a water carrier, whereas oxitriptan was in a methanol carrier.
# (§2) The mice were housed in plastic cages (35×30×12 cm), 5 in each. The room temperature (21±2° C.), relative humidity (55±5%), a 12-h light-dark cycle (lights on 7 a.m.-7 p.m.) and air exchange (16 times per h) were automatically controlled. The animals had free access to commercial food pellets and water. Testing was conducted during the light phase. Ten mice per treatment group were used for the AGS experiments. Experiments were conducted in line with the requirements of the UK Animals (Scientific Procedures) Act, 1986.
# (§3) All experiments were conducted with the experimenter blind to genotype and drug treatment. Separate investigators prepared and coded dosing solutions, allocated the mice to the study treatment groups, dosed the animals, and collected the Audiogenic Seizure data.
# (§4) Behavior testing was conducted at 2 weeks. The behavioral tests were as follows: 1. Hyperactivity: Open field; 2. Stereotypy: Self-grooming; 3. Sociability: Three chamber partition test; 4. Memory and Learning: Novel Object Recognition; 5. Anxiety: hyponeophagia; and 6. Test of daily living: marble burying
# For anxiety a hyponeophagia test was conducted. Mice and rats cannot vomit, due to the tightness of the cardiac sphincter of the stomach, so to overcome the problem of potential food toxicity they have evolved a strategy of first ingesting only very small amounts of novel substances. The amounts ingested then gradually increase until the animal has determined whether the substance is safe and nutritious. So the old rat-catchers would first put a palatable substance such as oatmeal, which was to be the vehicle for the toxin, in the infested area (Deacon 2011).
# (§5) The treatment of the mice with OX (Oxitriptan), SU (Sumatriptan), ER (Ergoloid mesylates, also referred to as ergoloid herein) were according to the matrix shown below in Table 1.
# (§6) The experimental procedures described above for Example 1 were used in the following tests, as well as the addition of two further behaviour tests as described below. An SSRI (selective serotonin re-uptake inhibitor) was co-dosed with the ergoloid mesylates and oxitriptan to assess the effect of the ergoloid mesylates and oxitriptan treatment on a subject already receiving SSRI treatment.
# (§7) The treatment of the mice with OX (Oxitriptan), ER (Ergoloid mesylates) and FL (fluvoxamine) were according to the matrix shown below in Table 21. The triple combination involved dosing of 2 mg/kg ergoloid mesylates, 40 mg/kg oxitriptan and 40 mg/kg of fluvoxamine (the SSRI).
# Fmr1 KO mice [2] = experiment: Novel Object Recognition (memory and learning); design: Mean Diff., N_WT-V vs. treated KO (NOR) / Mean 2, treated KO group (NOR) / Mean Diff., F_KO-V vs. F_KO treated (NOR) / Mean Diff., F_KO-V vs. N_KO treated (NOR) / Mean 2, F_KO treated group (NOR) / Mean 2, N_KO treated group (NOR): unit not given here
# Description: as §1, §2, §3, §4
# For memory and learning, a novel object recognition (NOR) task was used to evaluate the rodents' ability to recognize a novel object in the environment. […] The task procedure consists of three phases: habituation, familiarization, and test phase (Antunes 2012).
# (§8) The treatment of the mice with OX (Oxitriptan), SU (Sumatriptan), ER (Ergoloid mesylates, also referred to as ergoloid herein) were according to the matrix shown below in Table 1. […]
# Fmr1 KO mice [3] = experiment: Self-grooming (stereotypy); conditions: Dunnett's test, alpha 0.05; doses as E31
# Description: as §1, §2, §3
# Behavior testing was conducted at 2 weeks. The behavioral tests were as follows: 1. Hyperactivity: Open field; 2. Stereotypy: Self-grooming; 3. […]
# For stereotypy, self-grooming was assessed. […]
# Fmr1 KO mice [4] = experiment: Three chamber partition test (sociability); design: Mean Diff., N_WT-V vs. treated KO (Sociability) / Mean 2, treated KO group (Sociability) / Mean Diff., F_KO-V vs. F_KO treated (Sociability) / Mean Diff., F_KO-V vs. N_KO treated (Sociability) / Mean 2, F_KO treated group (Sociability) / Mean 2, N KO treated group (Sociability) / Mean 2, N_KO treated group (Sociability) / Data table Sociability, F_KO-Sumatriptan / Data table Sociability, N_KO-Sumatriptan / Data table Sociability, F_KO-Oxitriptan: unit not given here
# Description: as §1, §2, §3, §4
# For sociability a three chamber partition test was utilized. The three-chamber paradigm test known as Crawley's sociability and preference for social novelty protocol has previously been successfully employed to study social affiliation and social memory in several inbred and mutant mouse lines. The main principle of the test was based on the free choice by a subject mouse to spend time in any of three box's compartments during two experimental sessions, including indirect contact with one or two mice with which it was unfamiliar (Kaidanovich-Beilin 2011).
# as §8
# Fmr1 KO mice [5] = experiment: Test of daily living (nesting; marble burying)
# Description: as §1, §2, §3, §4
# For test of daily living, nesting was assessed as nest building is an innate behavior in rodents, even when raised in laboratory settings. Synthetic and/or natural materials (such as twine, tissue, cotton, paper, and hay) are provided as a gauge of their overall well-being and as an ancillary assessment to predict the possible decline in cognition. Typically, changes in nesting behaviors, such as failure to create a nest, indicate a change in health or welfare. In addition, nesting behavior is sensitive to many environmental and physiological challenges, as well as many genetic mutations underlying pathological disease states (Gaskill 2013).
# as §5, §6, §7
# Fmr1 KO mice [6] = experiment: Open field test (hyperactivity)
# Description: as §1, §2, §3, §4
# For hyperactivity, the open field test (OFT) is a common measure of exploratory behavior and general activity in both mice and rats, where both the quality and quantity of the activity can be measured. Principally, the open field (OF) is an enclosure, generally square, rectangular, or circular in shape with surrounding walls that prevent escape. The OFT is also commonly used as a mechanism to assess the sedative, toxic, or stimulant effects of compounds (Gould 2009).
# as §5, §6, §7
# [7] = KO mice, mg/kg: Sumatriptan 20, Oxitriptan 40, Ergoloid 4, Ergoloid 2+Sumatriptan 10, Ergoloid 2+Oxitriptan 40
# [8] = F_ groups, mg/kg: Sumatriptan 20, Oxitriptan 40, Ergoloid 4, Ergoloid 2+Oxitriptan 40 (Column M)
# [9] = F_, KO mice, Sumatriptan 20 mg/kg, individual animals
# [10] = N_ groups, mg/kg: Sumatriptan 20, Oxitriptan 40, Ergoloid 4, Ergoloid 2+Oxitriptan 40
# [11] = N_ groups, mg/kg: Sumatriptan 20, Oxitriptan 40, Ergoloid 4, F_KO Ergoloid 2+Sumatriptan 10, N_KO Ergoloid 2+Oxitriptan 40
smiles,measurement,setting,value
CNS(=O)(=O)Cc1ccc2[nH]cc(CCN(C)C)c2c1 [Sumatriptan],Significant? WT-V vs. treated KO (Hyponeophagia),"Fmr1 KO mice [1]; Dunnett's test, alpha 0.05, doses as E6",Yes
same,Significant? KO-V vs. treated KO (Hyponeophagia),"Fmr1 KO mice [1]; Dunnett's test, alpha 0.05, doses as E36",Yes
same,"Mean Diff., WT-V vs. treated KO (Hyponeophagia)",Fmr1 KO mice [1]; [7],−9.200
same,Significant? F_KO-V vs. F_KO treated (NOR),"Fmr1 KO mice [2]; Dunnett's test, alpha 0.05, F_ groups, doses as E46",No
same,Significant? F_KO-V vs. N_KO treated (NOR),"Fmr1 KO mice [2]; Dunnett's test, alpha 0.05, N_ groups, doses as E51",No
same,Significant? N_WT-V vs. treated KO (NOR),"Fmr1 KO mice [2]; Dunnett's test, alpha 0.05, groups and doses as E16",Yes
same,"Summary, F_KO-V vs. F_KO treated (NOR)","Fmr1 KO mice [2]; Dunnett's test, F_ groups, doses as E46",ns
same,"Summary, F_KO-V vs. N_KO treated (NOR)","Fmr1 KO mice [2]; Dunnett's test, N_ groups, doses as E51",ns
same,"Mean Diff., F_KO-V vs. F_KO treated (NOR)",Fmr1 KO mice [2]; [8],−0.2000
same,"Data table Novel Object Recognition, F_KO-Sumatriptan",Fmr1 KO mice [2]; [9],6
same,"Mean Diff., F_KO-V vs. N_KO treated (NOR)",Fmr1 KO mice [2]; [10],−0.7000
same,"Mean Diff., N_WT-V vs. treated KO (NOR)",Fmr1 KO mice [2]; [11],6.600
same,"Mean 2, F_KO treated group (NOR)","Fmr1 KO mice [2]; comparison against F_KO-V, doses as E46",5.800
same,"Mean 2, N_KO treated group (NOR)","Fmr1 KO mice [2]; comparison against F_KO-V, doses as E51",7.300
same,"Mean 2, treated KO group (NOR)","Fmr1 KO mice [2]; comparison against N_WT-V, groups and doses as E16",7.300
same,Significant? KO-V vs. treated KO (Stereotypy),Fmr1 KO mice [3],Yes
same,Significant? F_KO-V vs. F_KO treated (Sociability),"Fmr1 KO mice [4]; Dunnett's test, alpha 0.05, F_ groups, doses as E56",Yes
same,Significant? F_KO-V vs. N_KO treated (Sociability),"Fmr1 KO mice [4]; Dunnett's test, alpha 0.05, N_ groups, doses as E61",Yes
same,Significant? N_WT-V vs. treated KO (Sociability),"Fmr1 KO mice [4]; Dunnett's test, alpha 0.05, groups and doses as E21",No
same,"Summary, N_WT-V vs. treated KO (Sociability)","Fmr1 KO mice [4]; Dunnett's test, groups and doses as E21",ns
same,"Mean Diff., F_KO-V vs. F_KO treated (Sociability)",Fmr1 KO mice [4]; [8],19.40
same,"Data table Sociability, F_KO-Sumatriptan",Fmr1 KO mice [4]; [9],61 (2×) and 64 and 65 (2×) and 60 (3×) and 63 (2×)
same,"Data table Sociability, N_KO-Sumatriptan","Fmr1 KO mice [4]; KO mice, Sumatriptan 20 mg/kg, individual animals",99 and 97 (2×) and 103 and 98 and 90 and 102 and 100 and 95 and 101
same,"Mean Diff., F_KO-V vs. N_KO treated (Sociability)",Fmr1 KO mice [4]; [10],−16.80
same,"Mean Diff., N_WT-V vs. treated KO (Sociability)",Fmr1 KO mice [4]; [11],0.9000
same,"Mean 2, F_KO treated group (Sociability)","Fmr1 KO mice [4]; comparison against F_KO-V, doses as E56",62.20
same,"Mean 2, N KO treated group (Sociability)","Fmr1 KO mice [4]; comparison against F_KO-V, doses as E61",98.2
same,"Mean 2, treated KO group (Sociability)","Fmr1 KO mice [4]; comparison against N_WT-V, groups and doses as E21",98.20
same,Significant? WT-V vs. treated KO (Test of daily living),"Fmr1 KO mice [5]; Dunnett's test, alpha 0.05, doses as E11",No
same,Significant? KO-V vs. treated KO (Test of daily living),"Fmr1 KO mice [5]; Dunnett's test, alpha 0.05, doses as E41",Yes
same,"Summary, WT-V vs. treated KO (Test of daily living)","Fmr1 KO mice [5]; Dunnett's test, doses as E11",ns
same,"Mean Diff., WT-V vs. treated KO (Test of daily living)",Fmr1 KO mice [5]; [7],0.1000
same,"Mean 2, treated KO group (Test of daily living)","Fmr1 KO mice [5]; comparison against KO-V, doses as E41",4.700
same,"Mean 2, treated KO group (Test of daily living)","Fmr1 KO mice [5]; comparison against WT-V, doses as E11",4.700
same,Below threshold? WT-V vs. treated KO (Open Field),"Fmr1 KO mice [6]; Dunnett's test, alpha 0.05, doses as E1",Yes
same,Significant? KO-V vs. treated KO (Open Field),"Fmr1 KO mice [6]; Dunnett's test, alpha 0.05, doses as E26",Yes
same,"Mean Diff., KO-V vs. treated KO (Open Field)","Fmr1 KO mice [6]; KO mice, mg/kg: Sumatriptan 20, Oxitriptan 80, Ergoloid 4, Ergoloid 2+Oxitriptan 40",846.8
